Reference: patent publication US20040235834A1, “Thiazoles useful as inhibitors of protein kinases” (priority 2003, published 2004)

Columns and labels:
ZAP-70 = target: T1, ZAP-70 (Homo sapiens, UniProt P43403); test: ZAP-70 inhibition assay (standard coupled enzyme assay); type: biochemical; conditions: 100 μM ATP, 20 μM poly-4EY peptide, 30° C., 60 nM ZAP-70
T1 sequence (P43403 1-619): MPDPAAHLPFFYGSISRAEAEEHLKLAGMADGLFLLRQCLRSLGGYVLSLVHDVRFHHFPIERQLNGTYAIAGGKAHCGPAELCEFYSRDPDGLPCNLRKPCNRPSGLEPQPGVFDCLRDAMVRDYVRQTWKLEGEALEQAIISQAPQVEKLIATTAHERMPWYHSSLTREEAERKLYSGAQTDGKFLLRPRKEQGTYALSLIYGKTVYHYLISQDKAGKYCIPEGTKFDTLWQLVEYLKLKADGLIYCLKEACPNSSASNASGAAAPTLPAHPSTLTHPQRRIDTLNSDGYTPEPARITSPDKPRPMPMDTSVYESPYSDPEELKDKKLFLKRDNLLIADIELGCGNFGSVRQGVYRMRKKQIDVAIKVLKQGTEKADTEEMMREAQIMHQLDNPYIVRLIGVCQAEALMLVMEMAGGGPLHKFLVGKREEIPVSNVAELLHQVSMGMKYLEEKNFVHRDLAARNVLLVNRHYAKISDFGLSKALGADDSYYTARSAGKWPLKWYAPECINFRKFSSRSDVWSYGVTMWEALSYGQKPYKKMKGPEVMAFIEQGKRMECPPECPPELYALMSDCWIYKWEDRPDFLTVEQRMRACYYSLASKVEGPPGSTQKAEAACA
Procedure: Compounds were screened for their ability to inhibit ZAP-70 using a standard coupled enzyme assay (Fox et al., Protein Sci. 1998, 7, 2249). Assays were carried out in a mixture of 100 mM HEPES (pH 7.5), 10 mM MgCl2, 25 mM NaCl, 2 mM DTT and 3% DMSO. Final substrate concentrations in the assay were 100 μM ATP (Sigma Chemicals) and 20 μM peptide (poly-4EY, Sigma Chemicals). Assays were carried out at 30° C. and 60 nM ZAP-70. Final concentrations of the components of the coupled enzyme system were 2.5 mM phosphoenolpyruvate, 300 μM NADH, 30 μg/ml pyruvate kinase and 10 μg/ml lactate dehydrogenase.
An assay stock buffer solution was prepared containing all of the reagents listed above, with the exception of ZAP-70 and the test compound of interest of the present invention. 55 μl of the stock solution was placed in a 96 well plate followed by addition of 2 μl of DMSO stock containing serial dilutions of the test compound of the present invention (typically starting from a final concentration of 15 μM). The plate was preincubated for 10 minutes at 30° C. and the reaction initiated by addition of 10 μl of enzyme (final concentration 60 nM). Initial reaction rates were determined with a Molecular Devices SpectraMax Plus plate reader over a 15 minute time course. Ki data was calculated from non-linear regression analysis using the Prism software package (GraphPad Prism version 3.Oa for Macintosh, GraphPad Software, San Diego Calif., USA).

SYK = SYK (Homo sapiens, UniProt P43405); test: SYK inhibition assay (standard coupled enzyme assay); type: biochemical; conditions: 200 μM ATP, 4 μM poly Gly-Tyr peptide, 30° C.
Procedure: Compounds were screened for their ability to inhibit SYK using a standard coupled enzyme assay (Fox et al., Protein Sci. 1998, 7, 2249). Reactions were carried out in 100 mM HEPES (pH 7.5), 10 mM MgCl2, 25 mM NaCl, 1 mM DTT and 1.5% DMSO. Final substrate concentrations in the assay were 200 μM ATP (Sigma chemical Co.) and 4 μM poly Gly—Tyr peptide (Sigma Chemical Co.). Assays were carried out at 30° C. and 200 nM SYK. Final concentrations of the components of the coupled enzyme system were 2.5 mM phosphoenolpyruvate, 300 μM NADH, 30 μg/ml pyruvate kinase and 10 μg/ml lactate dehydrogenase.
An assay stock buffer solution was prepared containing all of the reagents listed above, with the exception of SYK, DTT, and the test compound of interest of the present invention. 56 μl of the test reaction was placed in a 96 well plate followed by the addition of 1 μl of 2 mM DMSO stock containing the test compound of the present invnetion (final compound concentration 30 μM). The plate was pre-incubated for ˜10 minutes at 30° C. and the reaction initiated by the addition of 10 μl of enzyme (final concentration 25 nM).

Ki (ZAP-70) [µM] | Ki (SYK) [µM] | Compound
≤ 5 | ≤ 5 | COc1cc(Nc2nccc(-c3cscn3)n2)cc(C(F)(F)F)c1 [Compound I-2]
≤ 5 | ≤ 5 | Cc1cc(C)cc(Nc2nccc(-c3csc(CO)n3)n2)c1 [Compound I-4]

Second part, the compound before the results:

Compound | Ki (ZAP-70) [µM] | Ki (SYK) [µM]
Cc1cc(Nc2nccc(-c3cscn3)n2)cc(C(F)(F)F)c1 [Compound I-5] | ≤ 5 | ≤ 5
Oc1cc(Nc2nccc(-c3cscn3)n2)cc(C(F)(F)F)c1 [Compound I-6] | ≤ 5 | ≤ 5
Cc1cc(C)cc(Nc2nccc(-c3cscn3)n2)c1 [Compound I-1] | ≤ 5 | ≤ 5
CC(=O)c1nc(-c2ccnc(Nc3cc(C)cc(C)c3)n2)cs1 [Compound I-3] | ≤ 5 | ≤ 5
